Test results published in PMC3050001 (Science (New York, N.Y.), 2010).

What was measured:
[1] = system: drug-selected Dd2 parasites (NITD609-R^Dd2, NITD678-R^Dd2); details: for cross-resistance in spiroindolone-selected mutants: NITD609- and NITD678-selected Dd2 mutants
in vivo = details: male, rat, po
[2] = system: P. falciparum parasites (Dd2, NITD609-R^Dd2); experiment: [35S]-Met/Cys incorporation assay; type: cell-based, Plasmodium falciparum; details: P. falciparum Dd2, within one hour
[3] = system: P. vivax clinical isolates; experiment: Ex vivo sensitivity assay with fresh clinical isolates
P. falciparum strains = details: culture-adapted P. falciparum strains incl. drug-resistant strains
[4] = system: panel of human G-protein coupled receptors, enzymes and ion channels
[5] = system: synchronized parasites at ring, trophozoite and schizont stages; experiment: In vitro drug sensitivity assay with synchronized parasites; type: cell-based, Plasmodium falciparum
[6] = male rats, oral, daily for 14 days
P. berghei = type: in vivo, Plasmodium berghei (mice)
[7] = system: P. falciparum clinical isolates; experiment: Ex vivo sensitivity assay with fresh clinical isolates; details: Plasmodium falciparum, in Homo sapiens
[8] = miniaturized Ames assay
[9] = type: in vivo, mice and rats
[10] = system: Dd2^attB parasites expressing mutant PfATP4; experiment: Growth inhibition of transgenic pfatp4 lines

C/C=C(/C)C(=O)O[C@H]1C(C)=C2[C@H]([C@@H]1OC(=O)CCCCCCC)[C@@](C)(OC(C)=O)C[C@H](OC(=O)CCC)[C@@]1(O)[C@H]2OC(=O)[C@@]1(C)O [thapsigargin]
cross-resistance in spiroindolone-selected mutants [1]: no cross-resistance

C[C@H]1Cc2c([nH]c3cc(Cl)c(F)cc23)[C@@]2(N1)C(=O)Nc1ccc(Cl)cc12 [NITD609]
IC50 ([1]; Plasmodium falciparum, DD2, read-out: mean IC50 of drug-selected parasites): 3 to 11 nM | AUC(0-t) (in vivo): 29400 to 56500 ng·h/mL | effect on protein synthesis ([35S]-Met/Cys incorporation) [2]: effectively blocked protein synthesis | IC50 ([3]; Plasmodium vivax, in Homo sapiens): < 10 nM | IC50 (P. falciparum strains): 0.5 to 1.4 nM | logD (physchem; pH 7.4): 4.6 | pKa (physchem; pKa^2): 10.7 | binding to off-target panel [4]: no significant binding | sensitivity of parasite blood stages ([5]; high concentration, ≈100 × IC50 value): all stages (rings, trophozoites and schizonts) were similarly sensitive | sensitivity of parasite blood stages ([5]; low concentrations, ≈1 or 10 × IC50 value): schizonts were the most susceptible | adverse events / histopathological findings [6]: no adverse events or significant histopathological findings were observed | ED90 (P. berghei; oral, P. berghei mouse model): 2.7 mg/kg | IC50 [7]: < 10 nM | intrinsic mutagenic activity [8]: lacked intrinsic mutagenic activity | volume of distribution ([9]; mice and rats, oral and intravenous administration): moderate | bioavailability ([9]; orally administered): excellent | half-life ([9]; orally administered): long | oral absorption ([9]; orally administered): well absorbed

C[C@@H]1C[C@@H]([C@H](O)CC2CC(=O)NC(=O)C2)C(=O)[C@@H](C)C1 [cycloheximide]
effect on protein synthesis ([35S]-Met/Cys incorporation) [2]: A similar effect was observed

OC(c1cc(C(F)(F)F)nc2c(C(F)(F)F)cccc12)C1CCCCN1 (stereo not drawn) [Mefloquine]
potency against wild-type vs transgenic strains [10]: equivalent potency | effect on protein synthesis ([35S]-Met/Cys incorporation) [2]: only showed a nominal decrease

C[C@@H]1CC[C@H]2[C@@H](C)C(=O)O[C@@H]3O[C@@]4(C)CC[C@@H]1[C@]32OO4 [artemisinin]
cross-resistance in spiroindolone-selected mutants [1]: None of the selected mutants showed cross-resistance | potency against wild-type vs transgenic strains [10]: equivalent potency | effect on protein synthesis ([35S]-Met/Cys incorporation) [2]: only showed a nominal decrease

COc1ccc(C[C@H]2NC[C@H](O)[C@H]2OC(C)=O)cc1 [anisomycin]
effect on protein synthesis ([35S]-Met/Cys incorporation) [2]: A similar effect was observed

CO[C@H]1O[C@@H]2O[C@@]3(C)CC[C@H]4[C@H](C)CC[C@@H]([C@H]1C)[C@@]24OO3 [Artemether, reference compound]
inhibition of parasite growth ([5]; treatment at 8 nM for 6 hours): Strong inhibition | Survival (P. berghei; 1 × 100 mg/kg oral, control animals 6–7 days): 7.6 days

CCN(CC)CCCC(C)Nc1ccnc2cc(Cl)ccc12 (stereo not drawn) [Chloroquine, reference compound]
stage-specific sensitivity (ring vs trophozoite) ([3]; P. vivax, drug exposure 20 h, growth determined after 42 hours): significant stage-specific sensitivity

CC(=O)C1=C(O)[C@@H]2[C@H]3c4c[nH]c5cccc(c45)C[C@H]3C(C)(C)N2C1=O [cyclopiazonic acid]
cross-resistance in spiroindolone-selected mutants [1]: no cross-resistance
